These results are taken from patent US6881740B1, “Pharmaceutical agents” (Monash University, priority 1998, dated 2005).

The target in assay [1] is NMDA/polyamine sites (polyamine-sensitive [3H]-ifenprodil binding, rat cerebral cortex membranes) (Rattus norvegicus, UniProt P35439+Q00960). Description: NMDA/polyamine site [3H]-ifenprodil binding assay. Particulars: [3H]-ifenprodil 4 nM, rat cerebral cortex homogenate. An excerpt:
Ifenprodil and eliprodil have been reported as antiischaemic agents (Gotti et al., 1988) and both compounds have been reported to associate with the polyamine sensitive site of the NMDA receptor complex (Carter et al., 1989 and 1990; Reynolds et al., 1989; and Robinson et al., 1990). […] These agents bind independently of the NMDA ion channel (Carter et al., 1991; Reynolds et al., 1989), appear not to cause behavioural effects (Carter et al., 1991), and may target specific heteromeric NMDA receptors (Williams, 1993; Nicola et al., 1994) uniquely distributed in forebrain regions (Standaert et al., 1994) affected in ischaemia and head trauma. […] Accordingly, compounds of the present invention are capable of binding to the NMDA receptor complex and providing a neuroprotective effect, or otherwise providing benefit in other conditions related to NMDA receptors.
Briefly, crude membrane suspensions containing 10% rat cerebral cortex were prepared in aqueous 50 mM Tris-HCl buffer (pH 7.4, 4° C.), using a Polytron homogeniser.
Nonspecific binding was determined using spermine (10 μM).
The sigma receptor ligand 3PPP(+)-3-(3-hydroxyphenyl)-N-propyl-piperidine (100 μM) was included in all tubes to block binding to sigma receptors. […] Filterpapers were collected, combined with scintillant and bound radioactivity determined using a Packard Scintillation counter.

For assay [2], the system named is murine neocortical neurones. The assay can be described thus: NMDA-induced toxicity in neuronal cultures (MTT assay). Format: cell-based. Particulars: Mus musculus, NMDA 600 μM, 1 h, compound added 30 min prior, cultures at 8 days in vitro, read-out: EC50 for inhibition of NMDA-induced toxicity. How it is done: Assay for NMDA-induced Toxicity in Neuronal Cultures
Neuronal cell death was assessed using a 3-(4,5-dimethylthiazol-2-yl)-2,5-diphenyltetrazoliurn bromide (MTT) assay in which NMDA-induced cellular changes are reflected as altered mitochondrial activity (Ankarcrona et al., 1995), as estimated by the formation of a formazan dye, which is measured spectrophotometrically. The procedure employed is essentially that of Roehlm et al. (1991) with minor modifications as previously described elsewhere in work from our laboratories Larm et al. (1996).
Primary cultures of murine neocortical neurones were established as described elsewhere (Larm et al., 1996). The effects of experimental compounds were tested in the cultures at 8 days in vitro. Exposure to NMDA (600 μM, 1 h) and other compounds was performed in an humidified incubator (5% CO2, 8% O2) at 37° C. in anti-oxidant free medium with compounds under evaluation being added 30 min prior to NMDA. For these conditions the culture medium was modified by omitting the following components: D,L- -tocopherol, D,L- -tocopherol acetate, catalase, superoxide dismutase and L-glutamine. Other details are described in Larm et al. (1996). Absorbence was read at 570 nm using a Ceres UV900 microplate reader. Control cultures were included in each experiment containing either vehicle alone or vehicle plus compound. […]
(Formazan colour is commonly taken as a measure of viable cells.)

In assay [3] the test system is cultured cerebellar granule cells. The assay can be described thus: Veratridine induced toxicity in neuronal cultures (MTT assay). Particulars: Mus musculus.
Experimental: Veratridine Induced Toxicity in Neuronal Cultures
The cells were pre-incubated with drug for 30 minutes prior to a 60 minute exposure to veratridine (100 μM). Drug remained in the medium during exposure to veratridine. Cell viability was assessed at 18 hours by MTT assay.

NMDA/polyamine sites (polyamine-sensitive [3H]-ifenprodil binding, rat cerebral cortex membranes), sequence (Q00960 27-1482, other chains not shown): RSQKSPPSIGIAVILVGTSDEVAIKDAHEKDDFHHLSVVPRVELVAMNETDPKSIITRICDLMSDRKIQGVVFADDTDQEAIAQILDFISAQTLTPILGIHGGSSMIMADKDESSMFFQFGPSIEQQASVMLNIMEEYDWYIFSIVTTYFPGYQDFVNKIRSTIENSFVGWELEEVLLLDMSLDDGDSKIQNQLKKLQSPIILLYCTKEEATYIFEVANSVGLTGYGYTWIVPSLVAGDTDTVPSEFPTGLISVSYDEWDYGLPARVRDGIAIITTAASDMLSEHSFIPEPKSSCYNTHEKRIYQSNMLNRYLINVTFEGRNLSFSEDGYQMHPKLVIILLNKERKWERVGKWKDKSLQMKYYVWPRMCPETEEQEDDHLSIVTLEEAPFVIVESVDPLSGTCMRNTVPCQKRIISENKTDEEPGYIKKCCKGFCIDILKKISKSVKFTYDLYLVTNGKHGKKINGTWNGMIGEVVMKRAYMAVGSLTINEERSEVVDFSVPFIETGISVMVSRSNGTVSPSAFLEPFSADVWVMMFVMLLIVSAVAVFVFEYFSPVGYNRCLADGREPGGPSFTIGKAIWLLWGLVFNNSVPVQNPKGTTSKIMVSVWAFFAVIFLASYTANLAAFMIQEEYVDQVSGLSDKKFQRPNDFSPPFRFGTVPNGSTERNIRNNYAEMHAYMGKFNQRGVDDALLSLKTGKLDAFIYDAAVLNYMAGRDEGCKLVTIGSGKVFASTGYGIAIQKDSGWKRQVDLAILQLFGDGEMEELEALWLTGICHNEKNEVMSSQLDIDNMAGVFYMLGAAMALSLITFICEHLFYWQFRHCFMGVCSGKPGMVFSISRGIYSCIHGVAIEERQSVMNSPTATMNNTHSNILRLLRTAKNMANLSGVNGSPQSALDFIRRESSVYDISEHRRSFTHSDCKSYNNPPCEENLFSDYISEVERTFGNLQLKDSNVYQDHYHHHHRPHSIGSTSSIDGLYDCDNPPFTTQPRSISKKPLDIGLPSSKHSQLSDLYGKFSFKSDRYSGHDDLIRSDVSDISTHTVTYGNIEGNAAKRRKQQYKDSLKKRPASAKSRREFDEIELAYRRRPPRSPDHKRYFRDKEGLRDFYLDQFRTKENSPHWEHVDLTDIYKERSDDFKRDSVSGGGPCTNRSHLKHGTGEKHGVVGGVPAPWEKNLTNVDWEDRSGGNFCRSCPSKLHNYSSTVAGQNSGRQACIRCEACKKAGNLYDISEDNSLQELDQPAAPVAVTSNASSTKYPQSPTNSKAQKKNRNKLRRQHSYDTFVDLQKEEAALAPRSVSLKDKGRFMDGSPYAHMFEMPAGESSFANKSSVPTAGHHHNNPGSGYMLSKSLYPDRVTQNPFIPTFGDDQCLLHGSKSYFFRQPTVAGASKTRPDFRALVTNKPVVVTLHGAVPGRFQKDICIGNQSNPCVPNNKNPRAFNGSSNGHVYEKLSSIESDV

In general, IC50 refers to the point on the concentration scale where inhibition reaches its midpoint. As a reminder, the Ki is the dissociation constant of the complex between target and ligand, obtained from inhibition or displacement. A higher Ki goes with lower affinity. A word on the EC50: it is the concentration that produces a half-maximal response. `OC(Cc1cc(N2CCCC2)nc(N2CCCC2)n1)c1cccc(OC(F)(F)F)c1` (stereo not shown) [Compound 17, 6-[2-hydroxy-2-(3-trifluoromethoxyphenyl)ethyl]-2,4-di-N-pyrrolidinylpyrimidine] returned an IC50 in assay [1] (2 h at 4° C., 3PPP 100 μM to block sigma sites) of 4.33 ± 1.56 µM. Also, the Ki in assay [1] (competition curves analysed with Radlig) was determined as 1.4 ± 0.047 µM. In addition, the EC50 in assay [2] and in assay [3] was 1.7 µM each time.
